Measured values as given in PubChem BioAssay (NCI).
Values joined by “and” are separate entries in the source; they are usually repeats but may differ in a detail not shown here. Equal values may be shown once.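 Results reflect a 48-hour exposure of cells in 96-well plates to compound at five concentrations. The concentration for 50% growth inhibition is given as GI50. TGI is the concentration that stops growth completely.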

How the values were obtained:
Assay in all cases: DTP human tumour cell line panel, 48 h
SK-MEL-5 melanoma = tested on: SK-MEL-5 melanoma
SN12C renal = tested on: SN12C renal
NCI-H23 lung = tested on: NCI-H23 lung
MALME-3M melanoma = tested on: MALME-3M melanoma
BT-549 breast = tested on: BT-549 breast
HOP-62 NSCLC = tested on: HOP-62 NSCLC
HS 578T breast = tested on: HS 578T breast
IGROV1 ovarian = tested on: IGROV1 ovarian

Row | Compound | TGI (SK-MEL-5 melanoma) | TGI (SN12C renal) | TGI (NCI-H23 lung) | TGI (MALME-3M melanoma) [µM] | TGI (BT-549 breast) | TGI (HOP-62 NSCLC) | TGI (HS 578T breast) | TGI (IGROV1 ovarian) | GI50 (SK-MEL-5 melanoma) | GI50 (NCI-H23 lung) | GI50 (BT-549 breast) | GI50 (SN12C renal) | GI50 (MALME-3M melanoma) [nM] | GI50 (HOP-62 NSCLC) | GI50 (HS 578T breast) | GI50 (IGROV1 ovarian)
1 | CC1(C)CCC(C)(C)c2cc(C(=O)Nc3ccc(C(=O)O)cc3)ccc21 | > 56 µM | > 100 µM | 37.8 µM | > 100 | 73 µM | 37.5 µM | > 46.8 µM | 63.7 µM |  |  |  |  |  |  |  | 
2 | COc1ccc(-n2nnc3c(sc4ccccc43)c2=O)cc1 | > 100 µM |  | > 100 µM |  | > 100 µM |  |  |  | > 100000 nM | > 100 µM | > 100 µM |  |  |  |  | 
3 | CN1CCCN(CCNc2nccc(-c3c(-c4cccc(O)c4)nc4sccn34)n2)S1(=O)=O | 11.2 µM and 13.8 µM | 75 µM and > 100 µM | 37.8 µM and 72.9 µM | 3.91 | 58.8 µM and > 78.4 µM | 75 µM and > 100 µM | 75 µM and 26 µM | 16.6 µM and 43.6 µM | 1170 nM and 1230 nM | 11.1 µM and 14.4 µM | 9.2 µM and 12.3 µM | 8.55 µM and 6.23 µM | 58.3 | 30.6 µM and 30.9 µM | 7.08 µM and 3.04 µM | 3.93 µM and 5.33 µM
4 | Cn1cc(C2=C(c3cn(C)c4ccc(N)cc34)C(=O)NC2=O)c2ccccc21 | > 25 µM | > 25 µM | > 25 µM | > 25 | > 25 µM | > 25 µM | > 25 µM | > 25 µM | 6910 nM | 15.3 µM | 7.12 µM | 13.4 µM | > 25000 | 9.59 µM | 5.3 µM | 23.8 µM
5 | Cc1cc(N(CCNc2ccnc3cc(Cl)ccc23)Cc2ccc3c(c2)OCO3)nc(N2CCN(C)CC2)n1 | 3.25 µM | 14.2 µM | 22.3 µM | 3.36 | 5.54 µM | 15.4 µM | 5.2 µM | 12.7 µM | 1790 nM | 6.39 µM | 2.17 µM | 3.77 µM | 1770 | 2.22 µM | 1.87 µM | 3.09 µM
6 | O=C(Nc1ccc(OC(F)(F)F)cc1)c1sccc1NCc1ccnc2ccccc12 | 7.21 µM | > 100 µM | 19.6 µM | 14.6 | 51.5 µM | > 100 µM | 26 µM | 6.37 µM | 2370 nM | 2.18 µM | 6.9 µM | 2.97 µM | 1850 | 9.55 µM | 3.39 µM | 1.68 µM
7 | C#C[C@]1(O)CC[C@H]2[C@@H]3CC=C4c5nc(Nc6ccccn6)sc5CC[C@]4(C)[C@H]3CC[C@@]21C | 2.98 µM | 3.62 µM | 6.64 µM | 2.32 | 2.82 µM | 2.95 µM | 2.4 µM | 10.9 µM | 1600 nM | 1.67 µM | 0.692 µM | 1.75 µM | 677 | 1.11 µM | 0.421 µM | 2.27 µM
8 | NS(=O)(=O)c1ccc(N2Cc3cc(Cl)ccc3OC3=C2C(=O)N(CC2CCCCC2)C3=O)cc1 | 3.25 µM | 2.57 µM | 3.61 µM | 2.83 | 1.97 µM | 3.39 µM | 6.88 µM | 2.83 µM | 1770 nM | 1.64 µM | 0.546 µM | 1.01 µM | 1300 | 1.73 µM | 2.01 µM | 1.34 µM
9 | Cc1cc2c(cc1C)NC1=C(N2)OC(c2c[nH]c3ccc(COc4ccccc4)cc23)C1=O (centres undefined) | > 100 µM | > 100 µM | > 100 µM | > 100 | > 100 µM | 49.8 µM | > 100 µM | > 100 µM |  |  |  |  |  |  |  | 
10 | CCN(c1ccc(CO)c(Cl)c1)C(C)c1ccc(F)cc1 (centres undefined) | 28 µM | 28.5 µM | 30.5 µM | 31.8 | 29.6 µM | 30.2 µM | 40.2 µM | 4 µM | 14500 nM | 14 µM | 15.5 µM | 14.2 µM | 16700 | 16.2 µM | 16.9 µM | 0.891 µM
11 | Nc1cc2c3c(cccc3c1)NC2=O | > 100 µM | > 100 µM | > 100 µM | > 100 |  | > 100 µM | > 100 µM | > 100 µM |  |  |  |  |  |  |  | 
12 | C[n+]1cc2c3c(ccc2c2ccc4cc5c(cc4c21)OCO5)OCO3 | 2.39 µM |  | 2.18 µM | 1.83 | 2.08 µM | 1.44 µM | > 24.6 µM | 2.48 µM | 1160 nM | 0.72 µM | 0.784 µM |  | 564 | 0.349 µM | 2.11 µM | 1.18 µM
13 | CC[O-].CC[O-].O=C1C(=C([O-])c2ccccc2)C(=O)c2ccccc21.O=C1C(=C([O-])c2ccccc2)C(=O)c2ccccc21.[Ti+4] | > 100 µM | 99 µM | > 100 µM | > 100 |  | > 100 µM |  | > 100 µM | > 100000 nM | 92.3 µM |  | 26.6 µM | > 100000 | > 100 µM |  | > 100 µM
14 | O=C(CC(C(=O)c1cccs1)c1ccc2c(c1)OCO2)c1ccc(Br)cc1 (centres undefined) | > 100 µM | > 100 µM | > 100 µM | > 100 |  | > 100 µM |  | > 100 µM |  |  |  |  |  |  |  | 
15 | Cc1cc(C)c2c(c1)CN1CN2Cc2cc(C)cc(C)c21 |  | 32.6 µM | 55.4 µM |  |  | 53.2 µM |  | > 100 µM |  |  |  |  |  |  |  | 
16 | COc1ccc(OC)c(-c2cc(-c3ccccc3)nn2-c2ccc(S(=O)(=O)NC(C)=O)cc2)c1 | 26.8 µM | 26.2 µM | 21.5 µM |  | 38.6 µM |  | 80 µM | > 100 µM | 11800 nM | 8.24 µM | 16.2 µM | 13.2 µM |  |  | 27.4 µM | 27.4 µM
17 | Nc1cc(N)c2nc(-c3ccccc3)c(Oc3ccc(F)cc3)nc2c1 | 31.8 µM | 52.7 µM | 40.2 µM |  | 34.8 µM | 49.5 µM | 53.7 µM | > 100 µM | 12200 nM | 20.7 µM | 15 µM | 19.3 µM |  | 21.5 µM | 19.8 µM | 28.5 µM
18 | O=c1oc2ccccc2c(O)c1C=NC(=S)c1ccncc1 | > 100 µM | > 100 µM | > 100 µM |  | 94 µM | > 100 µM |  | > 100 µM |  |  |  |  |  |  |  | 
